The text below walks through data of ChEMBL document CHEMBL2074350, “Immunosuppressants FK506 and rapamycin function as reversal agents of the multidrug resistance phenotype” (Blood, 1992).

Structures are written as SMILES.

The target of the data set is ATP-dependent translocase ABCB1 (Homo sapiens, UniProt P08183). Nature of the data set: TP_TRANSPORTER: increase in Daunomycin intracellular accumulation (Daunomycin: 10 uM, Rapamycin: 5 uM) in CEM/VBL 250 cells. The conditions noted are these: cem/vbl 250, 5 µM. Format: functional, cell-based.
Chain of ATP-dependent translocase ABCB1 (P08183 whole entry): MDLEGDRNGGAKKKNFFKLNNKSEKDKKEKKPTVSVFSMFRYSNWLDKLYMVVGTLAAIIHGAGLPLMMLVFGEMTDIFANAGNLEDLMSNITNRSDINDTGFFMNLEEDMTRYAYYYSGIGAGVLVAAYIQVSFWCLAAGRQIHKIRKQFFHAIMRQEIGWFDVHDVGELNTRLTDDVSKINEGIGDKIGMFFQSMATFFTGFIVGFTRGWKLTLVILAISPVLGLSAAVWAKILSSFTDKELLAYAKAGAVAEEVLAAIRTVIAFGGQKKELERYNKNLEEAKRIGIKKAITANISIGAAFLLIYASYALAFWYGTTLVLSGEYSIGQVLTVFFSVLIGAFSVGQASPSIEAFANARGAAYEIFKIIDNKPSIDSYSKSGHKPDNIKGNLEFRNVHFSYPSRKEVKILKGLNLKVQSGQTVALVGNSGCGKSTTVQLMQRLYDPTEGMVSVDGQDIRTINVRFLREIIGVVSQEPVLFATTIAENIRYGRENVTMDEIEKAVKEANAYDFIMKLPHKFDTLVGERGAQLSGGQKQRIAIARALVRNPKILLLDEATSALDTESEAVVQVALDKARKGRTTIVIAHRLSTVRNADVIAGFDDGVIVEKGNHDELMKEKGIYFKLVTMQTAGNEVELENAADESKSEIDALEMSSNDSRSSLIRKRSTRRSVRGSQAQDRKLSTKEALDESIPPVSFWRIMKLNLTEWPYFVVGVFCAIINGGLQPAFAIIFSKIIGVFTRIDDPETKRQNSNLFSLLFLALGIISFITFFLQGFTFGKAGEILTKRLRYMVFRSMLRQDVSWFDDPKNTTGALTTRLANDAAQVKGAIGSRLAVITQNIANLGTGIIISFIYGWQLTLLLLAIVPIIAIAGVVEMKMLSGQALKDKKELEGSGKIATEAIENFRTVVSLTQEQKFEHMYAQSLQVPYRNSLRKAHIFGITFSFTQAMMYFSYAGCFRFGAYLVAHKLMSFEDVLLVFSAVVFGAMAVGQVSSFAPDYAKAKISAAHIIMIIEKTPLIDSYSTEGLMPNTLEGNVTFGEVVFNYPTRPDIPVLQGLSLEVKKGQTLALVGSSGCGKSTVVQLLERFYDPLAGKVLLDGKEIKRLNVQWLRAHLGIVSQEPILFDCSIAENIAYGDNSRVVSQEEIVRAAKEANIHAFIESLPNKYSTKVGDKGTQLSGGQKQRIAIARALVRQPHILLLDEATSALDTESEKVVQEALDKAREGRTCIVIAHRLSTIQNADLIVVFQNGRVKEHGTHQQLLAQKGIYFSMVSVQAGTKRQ

`CO[C@H]1C[C@@H]2CC[C@@H](C)[C@@](O)(O2)C(=O)C(=O)N2CCCC[C@H]2C(=O)O[C@H]([C@H](C)C[C@@H]2CC[C@@H](O)[C@H](OC)C2)CC(=O)[C@H](C)/C=C(\C)[C@@H](O)[C@@H](OC)C(=O)[C@H](C)C[C@H](C)/C=C/C=C/C=C/1C` [SIROLIMUS]: the Activity entry is “inhibitor [(at a rough estimate) 7-fold]”.
